Results reported in publication PMC9618137, “Bacterial catabolism of acetovanillone, a lignin-derived compound” (Proceedings of the National Academy of Sciences of the …, 2022).

Tested on: T1, HpeCBA
T1 construct: gene hpeB; hpeCBA co-expressed in Rhodococcus jostii RHA1; untagged complex, ammonium sulfate and anion exchange; with Phosphophenylethanone carboxylase, biotin carboxylase; Phosphophenylethanone carboxylase, biotin carboxyl carrier protein
Experiment: coupled spectrophotometric assay (pyruvate kinase / lactate dehydrogenase, NADH oxidation)
Type: biochemical, Rhodococcus rhodochrous
Details: 20 mM MOPS (I = 0.1 M), pH 7.5, 25 °C; ATP, Mg2+, HCO3-
Text: coupled spectrophotometric assay (pyruvate kinase / lactate dehydrogenase, NADH oxidation) on HpeCBA

Row | Compound | Km [µM]
1 | CC(=O)c1ccc(OP(=O)(O)O)cc1 [PAP] | 69
2 | COc1cc(C(C)=O)ccc1OP(=O)(O)O [PAV] | 560
